According to ChEMBL document CHEMBL1201862, “PubChem BioAssay data set” (2004):
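Exposure lasted 48 hours, with cells grown in 96-well plates and compounds tested at five concentrations. GI50 marks 50% less growth.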 Activity calls are given as the source filed them. Rule as the data show it: active = GI50 up to about 1.1 µM and inactive = higher.

Columns and labels:
Experiment in all cases: NCI tumour cell line growth inhibition, 48 h
SN12C = tested on: SN12C
HCT-116 = tested on: HCT-116
LOX IMVI = tested on: LOX IMVI
OVCAR-3 = tested on: OVCAR-3
M14 = tested on: M14
A498 = tested on: A498
MOLT-4 = tested on: MOLT-4
K562 = tested on: K562
OVCAR-5 = tested on: OVCAR-5
SK-MEL-5 = tested on: SK-MEL-5
SF-268 = tested on: SF-268
ACHN = tested on: ACHN
EKVX = tested on: EKVX
TK-10 = tested on: TK-10
SNB-19 = tested on: SNB-19
Malme-3M = tested on: Malme-3M
UACC-62 = tested on: UACC-62
HCT-15 = tested on: HCT-15
RXF 393 = tested on: RXF 393
SNB-75 = tested on: SNB-75

| Structure (SMILES) | GI50 (SN12C) | GI50 (HCT-116) | GI50 (LOX IMVI) | GI50 (OVCAR-3) | GI50 (M14) | GI50 (A498) | GI50 (MOLT-4) | GI50 (K562) | GI50 (OVCAR-5) | GI50 (SK-MEL-5) | GI50 (SF-268) | GI50 (ACHN) | GI50 (EKVX) | GI50 (TK-10) | GI50 (SNB-19) | GI50 (Malme-3M) | GI50 (UACC-62) | GI50 (HCT-15) [µM] | GI50 (RXF 393) | GI50 (SNB-75) |
| --- | --- | --- | --- | --- | --- | --- | --- | --- | --- | --- | --- | --- | --- | --- | --- | --- | --- | --- | --- | --- |
| Cc1ccc(C2=C(C#N)C(N)OC3=C2COc2ccccc23)cc1 (centres undefined) | 18.6 µM (inactive) | 31.9 µM (inactive) | 88.3 µM (inactive) | 17 µM (inactive) | > 100 µM (inactive) | 24.1 µM (inactive) | 16.6 µM (inactive) | 80.7 µM (inactive) | 2.4 µM (inactive) | 63 µM (inactive) | 27 µM (inactive) | 35.2 µM (inactive) | 7.19 µM (inactive) | 17.2 µM (inactive) | 19 µM (inactive) | 22.8 µM (inactive) | 78 µM (inactive) | > 100 |  |  |
| COc1cc(C2S/C(=C/c3ccccc3)C(=O)N2c2cccc(NC(C)=O)c2)cc(OC)c1OC (centres undefined) | 45.2 µM (inactive) | 17.2 µM (inactive) | 21.5 µM (inactive) |  | 34.4 µM (inactive) | 32.5 µM (inactive) | 30.6 µM (inactive) | 39.5 µM (inactive) | 65.8 µM (inactive) | 35.2 µM (inactive) | 24.1 µM (inactive) | 37.2 µM (inactive) | 19.3 µM (inactive) | 80.5 µM (inactive) | 58.7 µM (inactive) | 23.4 µM (inactive) | 29.1 µM (inactive) | 30.5 | 28.8 µM (inactive) | 4.02 µM (inactive) |
| O=C(O)C1=C(CO)Oc2cc3c(cc2C1c1ccc2c(c1)OCO2)OCO3 (centres undefined) | > 100 µM (inactive) | > 100 µM (inactive) | > 100 µM (inactive) | > 100 µM (inactive) | > 100 µM (inactive) |  | > 100 µM (inactive) | > 100 µM (inactive) |  | > 100 µM (inactive) |  | > 100 µM (inactive) | > 100 µM (inactive) | > 100 µM (inactive) | > 100 µM (inactive) | > 100 µM (inactive) | > 100 µM (inactive) | > 100 | > 100 µM (inactive) | > 100 µM (inactive) |
| O=C(Nc1ccc(Cl)cc1)C(=O)C(C(=O)c1ccccc1-c1ccccc1)C1OC(=O)c2ccccc21 (centres undefined) | 19.3 µM (inactive) | 18.2 µM (inactive) | 14.6 µM (inactive) |  | 20 µM (inactive) | 16.4 µM (inactive) | 29.4 µM (inactive) | 34.4 µM (inactive) | 28.3 µM (inactive) | 14.5 µM (inactive) | 21.3 µM (inactive) | 32.4 µM (inactive) | 18.2 µM (inactive) | 21.4 µM (inactive) | 16.6 µM (inactive) |  | 15.9 µM (inactive) | 17.6 | 11.6 µM (inactive) | 31.4 µM (inactive) |
| O=C(N/C=C1\C(=O)Oc2ccccc2C1=O)NC1CCCCC1 | 39.7 µM (inactive) | 78.5 µM (inactive) | 85.3 µM (inactive) |  | 50.2 µM (inactive) |  | 62.7 µM (inactive) |  | > 100 µM (inactive) | > 100 µM (inactive) | 41.2 µM (inactive) | 30.5 µM (inactive) | > 100 µM (inactive) | > 100 µM (inactive) | 42.7 µM (inactive) |  | 28 µM (inactive) | 37.3 | 19.9 µM (inactive) |  |
| O=C(NC(Cc1ccc(I)cc1)C(=O)O)c1ccc(Cl)cc1 (centres undefined) | > 100 µM (inactive) | > 100 µM (inactive) | > 100 µM (inactive) | > 88.5 µM (inactive) |  | > 100 µM (inactive) | > 74.3 µM (inactive) | > 100 µM (inactive) | > 100 µM (inactive) | > 100 µM (inactive) | > 100 µM (inactive) |  | > 67.8 µM (inactive) |  | > 100 µM (inactive) | 89.7 µM (inactive) | 74.8 µM (inactive) | > 100 |  | 87.3 µM (inactive) |
| COc1cc(O)c2c(c1)C(=O)c1cc3c(c(O)c1C2=O)C(OC1OC(C)C(O)C(O)C1OC)C(OC)C(C)(O)C3=O (centres undefined) | 1.9 µM (inactive) |  | 2 µM (inactive) | 0.439 µM (active) |  | 2.04 µM (inactive) |  |  | 4.43 µM (inactive) | 0.865 µM (active) | 2.12 µM (inactive) |  | 2.43 µM (inactive) |  | 2.94 µM (inactive) | 0.893 µM (active) | 1.38 µM (inactive) | 2.32 | 1.22 µM (inactive) | 3.57 µM (inactive) |
| CCOP(=O)(COCCn1nc(Br)c(=O)[nH]c1=O)OCC | > 100 µM (inactive) |  | > 100 µM (inactive) | > 100 µM (inactive) | > 100 µM (inactive) | > 100 µM (inactive) | > 100 µM (inactive) | > 100 µM (inactive) | > 100 µM (inactive) | > 100 µM (inactive) | > 100 µM (inactive) | > 100 µM (inactive) | > 100 µM (inactive) |  | > 100 µM (inactive) | > 100 µM (inactive) |  | > 100 | > 100 µM (inactive) | > 100 µM (inactive) |
